Target: Drp1 (Homo sapiens (Human), UniProt O00429)
Assay: Drp1 Activity Screen: colorimetric (malachite green) GTPase assay
Assay type: biochemical
Conditions: 1 mM GTP, 20 min at 37° C.; for IC50: GTPase activity, 0.6 μM Drp1 preincubated with 0.1 mg/mL liposomes; for max % inh: max % inhibition of Drp1 GTPase activity, 0.6 μM Drp1, 0.1 mg/mL liposomes
Experimental: The GTPase activity of Drp1 was assayed using a colorimetric assay similar to as described previously by Leonard M. et al. “Robust colorimetric assays for dynamin's basal and stimulated GTPase activities.” Methods Enzymol. […] Briefly, for GTPase assays of purified Drp1 inhibitor samples, 0.6 μM Drp1 preincubated with 0.1 mg/mL liposomes (consisting of 80% soybean lipids/20% cardiolipin) and inhibitor was added to 1 mM GTP in a microtiter plate for 20 min at 37° C. in 4 mM MgCl2, 10 mM Hepes (pH 7.0), 100 mM KCl, 1 mM DTT. Reactions were stopped by diluting with 0.5 mM EDTA. Samples were then incubated with malachite green reagent (1 mM malachite green and 50 mM ammonium molybdate in 1 N HCl), and the absorbance at 650 nm was measured. The reaction rates, IC50 values, and max % inhibition were determined using Excel/GraphPad Prism software.

Chain of Drp1 (O00429 whole entry): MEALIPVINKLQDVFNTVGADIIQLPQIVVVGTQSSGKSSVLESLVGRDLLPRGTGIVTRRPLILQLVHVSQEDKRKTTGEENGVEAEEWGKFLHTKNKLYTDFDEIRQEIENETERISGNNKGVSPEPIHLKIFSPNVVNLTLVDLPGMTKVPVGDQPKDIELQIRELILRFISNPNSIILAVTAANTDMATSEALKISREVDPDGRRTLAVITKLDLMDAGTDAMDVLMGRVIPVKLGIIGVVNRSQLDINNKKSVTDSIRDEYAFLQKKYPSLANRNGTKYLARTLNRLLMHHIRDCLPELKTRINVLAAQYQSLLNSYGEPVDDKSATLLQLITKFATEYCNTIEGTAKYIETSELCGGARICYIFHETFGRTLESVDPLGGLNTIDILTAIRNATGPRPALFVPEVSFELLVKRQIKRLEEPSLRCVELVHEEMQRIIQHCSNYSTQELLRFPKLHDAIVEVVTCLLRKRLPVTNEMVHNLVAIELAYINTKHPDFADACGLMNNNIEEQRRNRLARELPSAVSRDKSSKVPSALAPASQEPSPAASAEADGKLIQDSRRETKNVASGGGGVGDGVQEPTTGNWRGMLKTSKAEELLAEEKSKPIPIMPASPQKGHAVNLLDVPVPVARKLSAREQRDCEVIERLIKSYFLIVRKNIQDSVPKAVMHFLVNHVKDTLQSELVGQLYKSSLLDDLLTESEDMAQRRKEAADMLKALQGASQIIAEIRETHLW

Compound `Cc1cn(Cc2csc(N3CCCCC3)n2)c(C(=O)Nc2ccc(C(=O)O)cc2)c1C` [Compound A-68, 4-(3,4-dimethyl-1-((2-(piperidin-1-yl)thiazol-4-yl)methyl)-1H-pyrrole-2-carboxamido)benzoic acid] has an IC50 of 30.5 µM.

In the case of `Cc1cc(C(=O)Nc2ccncc2)n(Cc2csc(N3CCCCC3)n2)c1` [Compound A-32, 4-methyl-1-((2-(piperidin-1-yl)thiazol-4-yl)methyl)-N-(pyridin-4-yl)-1H-pyrrole-2-carboxamide], the IC50 is reported as 10.3 µM.

`Cc1cc(C(=O)Nc2ccc(-c3c(C)noc3C)cc2)n(Cc2csc(N3CCCCC3)n2)c1` [Compound A-36, N-(4-(3,5-dimethylisoxazol-4-yl)phenyl)-4-methyl-1-((2-(piperidin-1-yl)thiazol-4-yl)methyl)-1H-pyrrole-2-carboxamide] showed an IC50 of 1.4 µM.

`CC(=O)NS(=O)(=O)c1ccc(NC(=O)c2cc(C)cn2Cc2csc(N3CCCCC3)n2)cc1` [Compound A-6, N-(4-(N-acetylsulfamoyl)phenyl)-4-methyl-1-((2-(piperidin-1-yl)thiazol-4-yl)methyl)-1H-pyrrole-2-carboxamide] was tested, and the IC50 was 5 µM and the max % inh was 71%.

Work on `Cc1cc(C(=O)Nc2ccc(-c3cccnc3)cc2)n(Cc2csc(N3CCCCC3)n2)c1` [Compound A-35, 4-methyl-1-((2-(piperidin-1-yl)thiazol-4-yl)methyl)-N-(4-(pyridin-3-yl)phenyl)-1H-pyrrole-2-carboxamide] yielded an IC50 of 1.2 µM.

For `Cc1cc(C(=O)Nc2ccc(C(=O)O)cc2)n(Cc2nc(N3CCCCC3)sc2C)c1` [Compound A-21, 4-(4-methyl-1-((5-methyl-2-(piperidin-1-yl)thiazol-4-yl)methyl)-1H-pyrrole-2-carboxamido)benzoic Acid], the IC50 was 11.9 µM.

`Cc1cc(C(=O)Nc2ccc(S(N)(=O)=O)cc2)n(Cc2csc(N3CCCCC3)n2)c1` [Compound A-8, 4-methyl-1-((2-(piperidin-1-yl)thiazol-4-yl)methyl)-N-(4-sulfamoylphenyl)-1H-pyrrole-2-carboxamide] showed an IC50 of 2.5 µM.

`O=C(Nc1ccc(CO)cc1)c1cc(Br)cn1Cc1csc(N2CCCCC2)n1` [Compound A-63, 4-bromo-N-(4-(hydroxymethyl)phenyl)-1-((2-(piperidin-1-yl)thiazol-4-yl)methyl)-1H-pyrrole-2-carboxamide] gave an IC50 of 3.4 µM and a max % inh of 68%.

In the case of `Cc1cc(C(=O)Nc2cccnc2)n(Cc2csc(N3CCCCC3)n2)c1` [Compound A-31, 4-methyl-1-((2-(piperidin-1-yl)thiazol-4-yl)methyl)-N-(pyridin-3-yl)-1H-pyrrole-2-carboxamide], the IC50 is reported as 7.6 µM.

`Cc1cc(C(=O)Nc2ccc(N3CCNC3=O)cc2)n(Cc2csc(N3CCCCC3)n2)c1` [Compound A-43, 4-methyl-N-(4-(2-oxoimidazolidin-1-yl)phenyl)-1-((2-(piperidin-1-yl)thiazol-4-yl)methyl)-1H-pyrrole-2-carboxamide] showed an IC50 of 4.3 µM.

`Cc1cc(C(=O)NC2CCOCC2)n(Cc2csc(N3CCCCC3)n2)c1` [Compound A-29, 4-methyl-1-((2-(piperidin-1-yl)thiazol-4-yl)methyl)-N-(tetrahydro-2H-pyran-4-yl)-1H-pyrrole-2-carboxamide] showed an IC50 of 14.4 µM.

For `Cc1cc(C(=O)Nc2ccccc2)n(Cc2csc(N3CCCCC3)n2)c1` [Compound A-15, 4-methyl-N-phenyl-1-((2-(piperidin-1-yl)thiazol-4-yl)methyl)-1H-pyrrole-2-carboxamide], the IC50 was 2.2 µM and the max % inh was 68%.

Compound `Cc1cc(C(=O)Nc2ccc(-c3ccoc3)cc2)n(Cc2csc(N3CCCCC3)n2)c1` [Compound A-38, N-(4-(furan-3-yl)phenyl)-4-methyl-1-((2-(piperidin-1-yl)thiazol-4-yl)methyl)-1H-pyrrole-2-carboxamide] has an IC50 of 1.2 µM.

With `Cc1cc(C(=O)N(C)c2ccccc2)n(Cc2csc(N3CCCCC3)n2)c1` [Compound A-28, N,4-dimethyl-N-phenyl-1-((2-(piperidin-1-yl)thiazol-4-yl)methyl)-1H-pyrrole-2-carboxamide] the IC50 was > 100 µM.
